Reference: the NIST ThermoML archive (doi:10.1016/j.fluid.2011.09.020)
Numbers after ± are expanded uncertainties.

Conditions: Liquid, Ebulliometric method (Recirculating still)

O=C(O)CCl [chloroethanoic acid]
Conditions | vapor or sublimation pressure [kPa]
380.7 K | 5 ± 0.1
384.7 K | 6 ± 0.1
389.5 K | 7.5 ± 0.1
391 K | 8 ± 0.1
393.8 K | 9 ± 0.1
396.3 K | 10 ± 0.1
398.7 K | 11 ± 0.1
400.7 K | 12 ± 0.1
402.7 K | 13 ± 0.1
404.6 K | 14 ± 0.1
406.3 K | 15 ± 0.1
410.2 K | 17.5 ± 0.1
413.7 K | 20 ± 0.1
419.5 K | 25 ± 0.1
424.5 K | 30 ± 0.1
432.6 K | 40 ± 0.1

O=C(O)C(Cl)Cl [2,2-dichloroacetic acid]
Conditions | vapor or sublimation pressure [kPa]
384.3 K | 5 ± 0.1
388.3 K | 6 ± 0.1
391.8 K | 7 ± 0.1
394.8 K | 8 ± 0.1
397.6 K | 9 ± 0.1
400.2 K | 10 ± 0.1
402.4 K | 11 ± 0.1
404.3 K | 12 ± 0.1
406.4 K | 13 ± 0.1
408.3 K | 14 ± 0.1
410.1 K | 15 ± 0.1
414.1 K | 17.5 ± 0.1
417.5 K | 20 ± 0.1
423.5 K | 25 ± 0.1
428.6 K | 30 ± 0.1
437 K | 40 ± 0.1
